Experiment: Intraduodenal (id) bioavailability screen in minipigs, plasma level of parent Mn complex by HPLC/MS/MS
Format: in vivo, Gottingen minipig
Settings: for Mini-Pig BioA: id 10 mg/kg, vs 1 mg/kg iv parent chloro complex, AUC0→24 h
Procedure: Compounds were screened for oral bioavailability by injecting the formulated prodrugs directly into the duodenum (intraduodenal or id administration) of the minipig test subjects, thus bypassing the acidic environment of the stomach and thereby eliminating potentially misleading oral bioavailability results that could arise from alteration of the test article drug in the acid environment of the stomach.
The studies were conducted at Xenometrics LLC (Stillwell, Kans.) and the id bioavailability was determined using various axial ligand derivative complexes of GC4419, GC4444, GC4403 and GC4401.
Male Gottingen minipigs (4-5 mo old, 9-12 kg weight) were purchased from Marshall BioResources and housed at Xenometrics. […] The distal end was exteriorized with a reusable accessible hub (see surgical details below). During a recovery period of at least 2 weeks the minipigs were handled daily to acclimate them to the test procedures, i.e., id dosing and blood collections. For each experiment, each minipig received a test article drug dissolved or suspended in an excipient vehicle. […] All dosing experiments were conducted in fasted animals. Food was withdrawn from the minipigs 16 hours before dosing. The minipigs had ad libitum access to water. Dosed minipigs were allowed access to food 6 hour after dosing. The test article was administered at a dose of 10 mg/kg parent drug in 0.1 mL/kg vehicle (e.g., 1.5 mL in 15 kg minipig) as a bolus injection (˜1 minute) via the id cannula. The actual amount of total test article drug administered varied with the formula weight of the prodrug. An equal volume of excipient vehicle was used to flush the cannula after the test article was administered. Approximately 6 hours later, corn oil was used to flush the cannula. After approximately 24 hours post-dose, the catheter was flushed with sterile saline solution and capped. At the following time-points 0.25, 0.5, 1, 2, 4, 8, 24 and 48 hour post-injection, 2 mL blood samples were collected by cranial vena cava puncture (4 mL Sodium heparin Vacutainer, 20 g 1.5″ needle) after the skin surface was wiped with ethanol. The minipig was placed in a sling in a recumbent position without anesthesia for the collection of blood samples. The minipigs were never used more than once per 7 days for experimentation. The blood samples were kept on ice until processed for plasma. Blood samples were centrifuged at 1200×g for ten minutes at 4° C. and plasma samples were transferred to 96 well plate tubes, capped and stored at −20° C. until shipment on dry ice to the analytical laboratory used for measuring the concentration of drug in the plasma. The concentration of the parent manganese pentaaza macrocylic ring complex (independent of the composition of the axial ligands) was measured in plasma using a validated HPLC/MS/MS method that is linear between 50 ng/mL and 20,000 ng/mL.
The oils used for preparing the dosing solutions were used as supplied from commercial sources. The Capmul MCM (NF) is a mixture of mono/diglycerides of caprylic/capric acids and was supplied by ABITEC Corporation, Janesville, Wis. The Miglyol 812 N is a mixture of caprylic/capric acid triglycerides and was supplied by Cremer Oleo Division, Eatontown, N.J. Labrafil M 2125 CS (NF) is chemically defined to be linoleoyl polyoxyl-6 glycerides NF and was supplied by Gattefosse, SAINT-PRIEST Cedex, France. Peceol is chemically defined to be the monoglyceride, glyceryl monooleate NF, and was supplied by Gattefosse, SAINT-PRIEST Cedex, France. Maisine 35-1 is chemically defined to be the monoglyceride glyceryl monolinoleate (NF) and was supplied by Gattefosse, SAINT-PRIEST Cedex, France. Labrasol (NF) is chemically defined to be caprylocaproyl polyoxyl-8 glycerides NF and was supplied by Gattefosse, SAINT-PRIEST Cedex, France. Labrafil M 1944 CS is chemically defined to be oleoyl polyoxyl-6 glycerides (NF), and is available from Gattefosse, SAINT-PRIEST Cedex, France. […]

[1] = base oil Capmul MCM, 10% by weight
[2] = base oil Maisine 35-1, 10% by weight
[3] = base oil Labrafil M2125 CS, 10% by weight

Row | Substance | Mini-Pig BioA [1] [%] | Mini-Pig BioA [2] [%] | Mini-Pig BioA (base oil Peceol, 10% by weight) [%] | Mini-Pig BioA [3] [%] | further results
1 | Manganese(II)bis-Benzoato[(4aS,13aS,17aS,21aS)-1,2,3,4,4a,5,6,12,13,13a,14,15,16,17,17a,18,19,20,21,21a-Eicosahydro-11,7-nitrilo-7H-dibenzo[b,h][1,4,7,10]tetraazacycloheptadecine-κN5,κN13,κN18,κN21,κN22]- [GC4712] | 24 | 18 | 29 | – | –
2 | Manganese(II)bis-L-Lactato[(4aS,13aS,17aS,21aS)-1,2,3,4,4a,5,6,12,13,13a,14,15,16,17,17a,18,19,20,21,21a-Eicosahydro-11,7-nitrilo-7H-dibenzo[b,h][1,4,7,10]tetraazacycloheptadecine-κN5,κN13,κN18,κN21,κN22]- [GC4714] | 36 | – | – | – | –
3 | Manganese(II)bis-L-phenylalaninato[(4aS,13aS,17aS,21aS)-1,2,3,4,4a,5,6,12,13,13a,14,15,16,17,17a,18,19,20,21,21a-Eicosahydro-11,7-nitrilo-7H-dibenzo[b,h][1,4,7,10]tetraazacyclo-heptadecine-κN5,κN13,κN18,κN21,κN22]- [GC4704] | 10 | – | – | – | –
4 | Manganese(II)bis-L-phenylglycinato[(4aS,13aS,17aS,21aS)-1,2,3,4,4a,5,6,12,13,13a, 14,15,16,17,17a,18,19,20,21,21a-Eicosahydro-11,7-nitrilo-7H-dibenzo[b,h][1,4,7,10]tetraazacyclo-heptadecine-κN5,κN13,κN18,κN21,κN22]- [GC4702] | 43 | – | 29 | 25 | Mini-Pig BioA (base oil Miglyol 812N, 10% by weight): 42%; oral bioavailability / absorption, comparison in words (minipig id dosing, oil formulations, comparison between axial ligands): much better absorbed
5 | Manganese(II)bis-L-valinato[(4aS,13aS,17aS,21aS)-1,2,3,4,4a,5,6,12,13,13a,14,15,16,17,17a,18,19,20,21,21a-Eicosahydro-11,7-nitrilo-7H-dibenzo[b,h][1,4,7,10]tetraazacyclo-heptadecine-κN5,κN13,κN18,κN21,κN22]- [GC4746] | 13 | – | – | – | –
6 | Manganese(II)bis-acetato[(4aS,13aS,17aS,21aS)-1,2,3,4,4a,5,6,12,13,13a,14,15,16,17,17a,18,19,20,21,21a-Eicosahydro-11,7-nitrilo-7H-dibenzo[b,h][1,4,7,10]tetraazacycloheptadecine-κN5,κN13,κN18,κN21,κN22]- [GC4701] | 15 | 8 | 11 | 16 | –
7 | Manganese(II)bis-cyclohexanebutyrato[(4aS,13aS,17aS,21aS)-1,2,3,4,4a,5,6,12,13,13a, 14,15,16,17,17a,18,19,20,21,21a-Eicosahydro-11,7-nitrilo-7H-dibenzo[b,h][1,4,7,10]tetraazacyclo-heptadecine-κN5,κN13,κN18,κN21,κN22]- [GC4707] | 9 | – | – | – | –
8 | Manganese(II)bis-dodecanoato[(4aS,13aS,17aS,21aS)-1,2,3,4,4a,5,6,12,13,13a,14,15,16,17,17a,18,19,20,21,21a-Eicosahydro-11,7-nitrilo-7H-dibenzo[b,h][1,4,7,10]tetraazacycloheptadecine-κN5,κN13,κN18,κN21,κN22]- [GC4708] | 12 | – | – | – | –
9 | Manganese(II)bis-n-Butyrato[(4aS,13aS,17aS,21aS)-1,2,3,4,4a,5,6,12,13,13a,14,15,16,17,17a,18,19,20,21,21a-Eicosahydro-11,7-nitrilo-7H-dibenzo[b,h][1,4,7,10]tetraazacycloheptadecine-κN5,κN13,κN18,κN21,κN22]- [GC4713] | – | – | 18 | 21 | –
10 | Manganese(II)bis-octanoato[(4aS,13aS,17aS,21aS)-1,2,3,4,4a,5,6,12,13,13a,14,15,16,17,17a,18,19,20,21,21a-Eicosahydro-11,7-nitrilo-7H-dibenzo[b,h][1,4,7,10]tetraazacycloheptadecine-κN5,κN13,κN18,κN21,κN22]- [GC4710] | 13 | 8 | – | 21 | –
11 | Manganese(II)bis-phenylacetato[(4aS,13aS,17aS,21aS)-1,2,3,4,4a,5,6,12,13,13a,14,15,16,17,17a,18,19,20,21,21a-Eicosahydro-11,7-nitrilo-7H-dibenzo[b,h][1,4,7,10]tetraazacyclo-heptadecine-κN5,κN13,κN18,κN21,κN22]- [GC4718] | 32 | 28 | – | – | –
12 | Manganese(II)bis-phenylglyoxaloto[(4aS,13aS,17aS,21aS)-1,2,3,4,4a,5,6,12,13,13a,14,15,16,17,17a,18,19,20,21,21a-Eicosahydro-11,7-nitrilo-7H-dibenzo[b,h][1,4,7,10]tetraazacyclohepta-decine-κN5,κN13,κN18,κN21,κN22]- [GC4719] | 25 | 31 | 28 | – | –
13 | Manganese(II)bis-pivaloato[(4aS,13aS,17aS,21aS)-1,2,3,4,4a,5,6,12,13,13a,14,15,16,17,17a,18,19,20,21,21a-Eicosahydro-11,7-nitrilo-7H-dibenzo[b,h][1,4,7,10]tetraazacycloheptadecine-κN5,κN13,κN18,κN21,κN22]- [GC4709] | 17 | – | – | 22 | –
14 | Manganese(II)bis-propionato[6R-Methyl(4aR,13aR,17aR,21aR)-1,2,3,4,4a,5,6,12,13,13a,14,15,16,17,17a,18,19,20,21,21a-Eicosahydro-11,7-nitrilo-7H-dibenzo[b,h][1,4,7,10]tetraazacycloheptadecine-κN5,κN13,κN18,κN21,κN22]- [GC4747] | – | – | – | 20 | –
15 | Manganese(II)bis-propionato[(4aR,13aR,17aR,21aR)-1,2,3,4,4a,5,6,12,13,13a,14,15,16,17,17a,18,19,20,21,21a-Eicosahydro-11,7-nitrilo-7H-dibenzo[b,h][1,4,7,10]tetraazacycloheptadecine-κN5,κN13,κN18,κN21,κN22]- [GC4748] | – | – | – | 22 | –
16 | Manganese(II)bis-propionato[(4aS,13aS,17aS,21aS)-1,2,3,4,4a,5,6,12,13,13a,14,15,16,17,17a,18,19,20,21,21a-Eicosahydro-11,7-nitrilo-7H-dibenzo[b,h][1,4,7,10]tetraaza-cycloheptadecine-κN5,κN13,κN18,κN21,κN22]- [GC4711] | 27 | 29 | 29 | 44 | Mini-Pig BioA (base oil Labrafil M1944 CS, 10% by weight): 23%
17 | Manganese(II)bis-rac-Mandelato[(4aS,13aS,17aS,21aS)-1,2,3,4,4a,5,6,12,13,13a,14,15,16,17,17a,18,19,20,21,21a-Eicosahydro-11,7-nitrilo-7H-dibenzo[b,h][1,4,7,10]tetraazacycloheptadecine-κN5,κN13,κN18,κN21,κN22]- [GC4706] | 28 | – | – | – | –
18 | Manganese(II)bis-racemic-2-phenylpropionato[(4aS,13aS,17aS,21aS)-1,2,3,4,4a,5,6,12,13,13a,14,15,16,17,17a,18,19,20,21,21a-Eicosahydro-11,7-nitrilo-7H-dibenzo[b,h][1,4,7,10]tetraazacycloheptadecine-κN5,κN13,κN18,κN21,κN22]- [GC4705] | 23 | – | 24 | – | –

Reference: patent US9738669B2, “Pentaaza macrocyclic ring complexes possessing oral bioavailability” (Galera Labs, LLC, priority 2015, dated 2017)
